From paper PMC3961306, “Comparison of the Cancer Gene Targeting and Biochemical Selectivities of All Targeted Kinase Inhibitors Approved for Clinical Use” (PLoS ONE, 2014)
Where two headings read alike, the source gives them in different places.

Columns and labels:
Experiment in all cases: Kinase profiling in a biochemical assay panel (mobility shift assays and ELISA), %-inhibition at 1 μM; selectivity entropy
[1] = target: T1, panel of more than 300 wild-type and mutant kinases (313 kinase panel) (Homo sapiens, UniProt Q96PF2)
T1 sequence (Q96PF2 1-358): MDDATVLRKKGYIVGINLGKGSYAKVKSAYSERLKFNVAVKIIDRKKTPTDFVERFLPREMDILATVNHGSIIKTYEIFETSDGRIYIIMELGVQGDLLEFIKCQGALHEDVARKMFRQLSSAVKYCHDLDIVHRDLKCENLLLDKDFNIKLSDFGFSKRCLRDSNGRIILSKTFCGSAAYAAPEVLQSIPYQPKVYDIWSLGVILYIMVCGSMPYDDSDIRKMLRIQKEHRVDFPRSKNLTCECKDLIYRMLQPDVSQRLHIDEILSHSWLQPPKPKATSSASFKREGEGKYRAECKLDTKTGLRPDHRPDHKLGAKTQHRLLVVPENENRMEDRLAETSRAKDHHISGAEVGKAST

[2] = target: panel of more than 300 wild-type and mutant kinases (313 kinase panel) (Homo sapiens, UniProt P10721)
Sequence of panel of more than 300 wild-type and mutant kinases (313 kinase panel) (Homo sapiens, UniProt P10721) (P10721 26-976, change not shown): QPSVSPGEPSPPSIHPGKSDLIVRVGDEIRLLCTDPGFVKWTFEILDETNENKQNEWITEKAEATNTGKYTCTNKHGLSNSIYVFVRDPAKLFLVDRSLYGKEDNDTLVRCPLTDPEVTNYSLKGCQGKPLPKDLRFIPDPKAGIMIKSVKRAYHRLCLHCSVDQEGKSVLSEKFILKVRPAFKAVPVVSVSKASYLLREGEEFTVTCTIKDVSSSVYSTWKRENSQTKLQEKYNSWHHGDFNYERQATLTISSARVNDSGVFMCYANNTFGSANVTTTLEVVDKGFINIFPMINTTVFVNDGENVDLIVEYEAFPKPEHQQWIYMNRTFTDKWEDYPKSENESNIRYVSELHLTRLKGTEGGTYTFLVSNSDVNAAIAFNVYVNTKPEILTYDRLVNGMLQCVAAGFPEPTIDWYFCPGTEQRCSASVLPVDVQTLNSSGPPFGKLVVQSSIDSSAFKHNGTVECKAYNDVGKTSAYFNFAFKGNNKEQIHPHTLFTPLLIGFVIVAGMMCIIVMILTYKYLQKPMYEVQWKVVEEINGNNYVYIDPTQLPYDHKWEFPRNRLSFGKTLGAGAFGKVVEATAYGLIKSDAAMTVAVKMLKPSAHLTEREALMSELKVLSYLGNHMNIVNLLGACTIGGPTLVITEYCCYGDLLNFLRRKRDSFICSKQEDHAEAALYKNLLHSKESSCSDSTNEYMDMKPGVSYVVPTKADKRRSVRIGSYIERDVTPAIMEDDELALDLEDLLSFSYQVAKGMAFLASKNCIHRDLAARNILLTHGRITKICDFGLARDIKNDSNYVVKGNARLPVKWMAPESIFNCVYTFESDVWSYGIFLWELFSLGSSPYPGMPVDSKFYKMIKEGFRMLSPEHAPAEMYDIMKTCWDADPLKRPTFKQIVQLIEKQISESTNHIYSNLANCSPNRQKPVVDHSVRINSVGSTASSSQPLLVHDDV

[3] = target: panel of more than 300 wild-type and mutant kinases (313 kinase panel) (Homo sapiens, UniProt P36894)
[4] = target: T2, panel of more than 300 wild-type and mutant kinases (313 kinase panel) (Homo sapiens, UniProt P46734)
T2 sequence (P46734 1-347): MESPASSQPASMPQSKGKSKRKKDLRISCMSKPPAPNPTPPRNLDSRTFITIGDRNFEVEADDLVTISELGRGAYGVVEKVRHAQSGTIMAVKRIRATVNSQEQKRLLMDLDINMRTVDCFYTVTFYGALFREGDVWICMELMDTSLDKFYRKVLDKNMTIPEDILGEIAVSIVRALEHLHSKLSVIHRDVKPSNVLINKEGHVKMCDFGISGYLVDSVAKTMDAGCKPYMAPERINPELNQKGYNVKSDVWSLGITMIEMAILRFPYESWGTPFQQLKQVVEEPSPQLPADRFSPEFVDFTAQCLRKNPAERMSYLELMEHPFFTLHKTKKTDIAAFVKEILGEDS

[5] = target: panel of more than 300 wild-type and mutant kinases (313 kinase panel) (Homo sapiens, UniProt Q04759)
Sequence of panel of more than 300 wild-type and mutant kinases (313 kinase panel) (Homo sapiens, UniProt Q04759) (Q04759 whole entry, change not shown): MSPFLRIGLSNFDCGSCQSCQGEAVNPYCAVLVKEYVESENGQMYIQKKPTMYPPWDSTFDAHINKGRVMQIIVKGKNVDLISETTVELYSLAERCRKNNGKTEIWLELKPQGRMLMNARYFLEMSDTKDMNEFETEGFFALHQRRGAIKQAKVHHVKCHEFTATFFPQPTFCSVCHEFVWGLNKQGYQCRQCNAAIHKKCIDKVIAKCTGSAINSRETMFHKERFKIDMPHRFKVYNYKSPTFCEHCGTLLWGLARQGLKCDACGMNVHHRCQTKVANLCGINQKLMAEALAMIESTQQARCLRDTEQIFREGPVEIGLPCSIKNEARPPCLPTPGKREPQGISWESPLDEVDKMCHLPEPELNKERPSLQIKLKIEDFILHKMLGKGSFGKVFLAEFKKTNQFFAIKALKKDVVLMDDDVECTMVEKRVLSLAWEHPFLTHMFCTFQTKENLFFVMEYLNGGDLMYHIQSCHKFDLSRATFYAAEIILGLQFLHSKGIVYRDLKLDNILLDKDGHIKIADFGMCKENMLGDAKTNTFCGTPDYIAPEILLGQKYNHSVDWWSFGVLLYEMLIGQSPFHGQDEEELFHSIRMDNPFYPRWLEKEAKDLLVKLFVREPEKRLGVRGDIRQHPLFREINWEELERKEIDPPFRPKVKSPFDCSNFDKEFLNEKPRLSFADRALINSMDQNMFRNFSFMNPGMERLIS

[6] = target: panel of more than 300 wild-type and mutant kinases (313 kinase panel) (Homo sapiens, UniProt Q8N4C8)
Sequence of panel of more than 300 wild-type and mutant kinases (313 kinase panel) (Homo sapiens, UniProt Q8N4C8) (Q8N4C8 whole entry, change not shown): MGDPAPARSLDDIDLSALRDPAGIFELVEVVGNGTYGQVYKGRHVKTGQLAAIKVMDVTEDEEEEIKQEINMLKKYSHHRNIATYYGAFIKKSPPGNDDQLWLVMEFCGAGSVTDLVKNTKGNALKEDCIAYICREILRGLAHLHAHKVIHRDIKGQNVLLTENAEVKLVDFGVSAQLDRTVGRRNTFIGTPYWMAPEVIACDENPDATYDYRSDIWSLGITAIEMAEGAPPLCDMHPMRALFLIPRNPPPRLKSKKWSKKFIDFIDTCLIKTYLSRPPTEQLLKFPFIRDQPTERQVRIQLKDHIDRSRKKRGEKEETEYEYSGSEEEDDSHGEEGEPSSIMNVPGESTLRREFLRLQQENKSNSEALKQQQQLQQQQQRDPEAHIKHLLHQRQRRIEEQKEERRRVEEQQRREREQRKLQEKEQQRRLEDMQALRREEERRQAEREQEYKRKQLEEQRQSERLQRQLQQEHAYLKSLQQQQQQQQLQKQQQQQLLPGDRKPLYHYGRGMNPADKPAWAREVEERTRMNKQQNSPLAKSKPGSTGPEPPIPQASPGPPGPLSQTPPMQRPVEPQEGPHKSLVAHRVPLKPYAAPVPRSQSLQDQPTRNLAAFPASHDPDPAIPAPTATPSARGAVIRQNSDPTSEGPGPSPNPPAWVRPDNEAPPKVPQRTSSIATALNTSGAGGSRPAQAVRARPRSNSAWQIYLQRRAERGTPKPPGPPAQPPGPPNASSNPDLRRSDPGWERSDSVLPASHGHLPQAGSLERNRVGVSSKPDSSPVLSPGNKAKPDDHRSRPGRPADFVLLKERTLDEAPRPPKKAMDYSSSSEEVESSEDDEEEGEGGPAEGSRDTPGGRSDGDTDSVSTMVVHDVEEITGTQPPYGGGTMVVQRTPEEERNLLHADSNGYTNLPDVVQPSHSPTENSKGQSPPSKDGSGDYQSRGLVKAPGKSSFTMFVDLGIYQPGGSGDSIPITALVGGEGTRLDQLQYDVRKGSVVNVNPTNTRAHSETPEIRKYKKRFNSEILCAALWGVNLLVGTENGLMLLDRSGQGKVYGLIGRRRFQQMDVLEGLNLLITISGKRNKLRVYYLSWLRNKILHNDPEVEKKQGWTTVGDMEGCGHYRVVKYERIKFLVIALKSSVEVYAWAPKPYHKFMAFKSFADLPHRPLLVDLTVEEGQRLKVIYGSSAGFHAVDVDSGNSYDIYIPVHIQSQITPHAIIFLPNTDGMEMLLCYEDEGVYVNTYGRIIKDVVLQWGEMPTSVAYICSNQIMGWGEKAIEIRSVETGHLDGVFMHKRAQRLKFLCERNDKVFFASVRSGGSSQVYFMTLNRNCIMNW

[7] = target: T3, panel of more than 300 wild-type and mutant kinases (313 kinase panel) (Homo sapiens, UniProt O14733)
T3 sequence (O14733 1-419): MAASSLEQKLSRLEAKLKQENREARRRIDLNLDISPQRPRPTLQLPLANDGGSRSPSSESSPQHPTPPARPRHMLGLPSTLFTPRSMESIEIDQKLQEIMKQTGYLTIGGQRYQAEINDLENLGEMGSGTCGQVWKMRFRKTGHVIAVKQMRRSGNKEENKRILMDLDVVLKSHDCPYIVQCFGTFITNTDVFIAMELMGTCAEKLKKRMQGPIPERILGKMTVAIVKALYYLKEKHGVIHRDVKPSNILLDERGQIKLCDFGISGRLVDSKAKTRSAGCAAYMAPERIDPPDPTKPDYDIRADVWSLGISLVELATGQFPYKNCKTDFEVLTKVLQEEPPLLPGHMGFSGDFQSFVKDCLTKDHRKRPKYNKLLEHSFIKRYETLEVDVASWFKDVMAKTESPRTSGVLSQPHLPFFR

[8] = target: panel of more than 300 wild-type and mutant kinases (313 kinase panel) (Homo sapiens, UniProt O75582)
[9] = target: panel of more than 300 wild-type and mutant kinases (313 kinase panel) (Homo sapiens, UniProt P07332)
[10] = target: T4, panel of more than 300 wild-type and mutant kinases (313 kinase panel) (Homo sapiens, UniProt P15735)
T4 sequence (P15735 1-406): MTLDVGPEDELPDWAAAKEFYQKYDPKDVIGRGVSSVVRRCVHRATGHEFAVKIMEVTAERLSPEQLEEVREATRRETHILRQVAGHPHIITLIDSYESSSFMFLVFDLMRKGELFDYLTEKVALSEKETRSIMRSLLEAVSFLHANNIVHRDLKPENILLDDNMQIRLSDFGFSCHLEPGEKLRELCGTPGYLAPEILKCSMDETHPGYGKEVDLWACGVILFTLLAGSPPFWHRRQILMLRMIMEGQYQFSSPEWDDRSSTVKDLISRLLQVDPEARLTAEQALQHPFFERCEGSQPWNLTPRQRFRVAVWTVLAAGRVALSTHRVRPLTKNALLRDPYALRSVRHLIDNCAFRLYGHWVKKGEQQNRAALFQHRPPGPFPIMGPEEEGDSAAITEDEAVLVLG

[11] = target: panel of more than 300 wild-type and mutant kinases (313 kinase panel) (Homo sapiens, UniProt P49674)
[12] = target: panel of more than 300 wild-type and mutant kinases (313 kinase panel) (Homo sapiens, UniProt Q9H2G2)
[13] = kinase MAP2K7, compound at 1 μM
[14] = kinase MAP2K3, compound at 1 μM

Structure (SMILES)	%-inhibition of TSSK2 ([1]; kinase TSSK2, 1 μM)	%-inhibition of KIT ([2]; kinase KIT, compound at 1 μM)	%-inhibition, BMPR1A ([3]; kinase BMPR1A, 1 μM compound)	%-inhibition of PKCθ ([5]; kinase PKCθ, 1 μM)	%-inhibition of MINK ([6]; kinase MINK, 1 μM)	%-inhibition of MAP2K7 [7, 13]	%-inhibition of MSK1 ([8]; kinase MSK1, 1 μM)	%-inhibition of PHKG2 ([10]; kinase PHKG2, 1 μM)	%-inhibition of MAP2K3 [4, 14]	%-inhibition, CK1ε ([11]; kinase CK1ε, 1 μM compound)	%-inhibition of SLK ([12]; kinase SLK, 1 μM)	also measured
CN(C)C/C=C/C(=O)Nc1cc2c(Nc3ccc(F)c(Cl)c3)ncnc2cc1O[C@H]1CCOC1 [afatinib]	2%	–	–	–	–	–	–	–	–	–	–	–
COc1cc(Nc2c(C#N)cnc3cc(OCCCN4CCN(C)CC4)c(OC)cc23)c(Cl)cc1Cl [bosutinib]	-9%	23%	1.74%	84%	100%	–	–	–	–	–	–	%-inhibition of MAP2K3 ([4]; 1 µM): 34%
COc1cc2nccc(Oc3ccc(NC(=O)C4(C(=O)Nc5ccc(F)cc5)CC4)cc3)c2cc1OC [cabozantinib]	0.418%	97%	2.27%	-4.28%	-2%	10%	-2%	-0.305%	72%	3.28%	52%	%-inhibition of FES ([9]; kinase FES, compound at 1 μM): 39%
C[C@@H](Oc1cc(-c2cnn(C3CCNCC3)c2)cnc1N)c1c(Cl)ccc(F)c1Cl [crizotinib]	0.896%	16%	41%	-3%	0%	4.36%	-0.641%	10%	12%	4%	–	–
CC(C)(C)c1nc(-c2cccc(NS(=O)(=O)c3c(F)cccc3F)c2F)c(-c2ccnc(N)n2)s1 [dabrafenib]	-1.73%	59%	17%	–	-0.772%	-4.55%	0.0759%	2%	11%	10%	12%	%-inhibition of FES ([9]; kinase FES, compound at 1 μM): 2.29%
Cc1nc(Nc2ncc(C(=O)Nc3c(C)cccc3Cl)s2)cc(N2CCN(CCO)CC2)n1 [dasatinib]	–	–	–	–	40%	-7%	–	–	35%	–	–	–
C#Cc1cccc(Nc2ncnc3cc(OCCOC)c(OCCOC)cc23)c1 [erlotinib]	–	–	–	–	–	–	–	–	–	–	–	%-inhibition of MAP2K7 ([7]; 1 µM): -5%; %-inhibition of MSK1 ([8]; 1 µM): 9%; %-inhibition of FES ([9]; 1 µM): 8.5%; %-inhibition of KIT ([2]; 1 µM): 32%; %-inhibition of PHKG2 ([10]; 1 µM): 4%; %-inhibition, BMPR1A [3]: 12%; %-inhibition of MAP2K3 ([4]; 1 µM): 10%; %-inhibition, CK1ε ([11]; 1 µM): -2.38%; %-inhibition of PKCθ ([5]; 1 µM): 4.46%; %-inhibition of MINK ([6]; 1 µM): 19%; %-inhibition of TSSK2 ([1]; 1 µM): 2%; %-inhibition of SLK ([12]; 1 µM): 89%
Cc1ccc(Nc2nccc(N(C)c3ccc4c(C)n(C)nc4c3)n2)cc1S(N)(=O)=O [pazopanib]	-2.46%	95%	-1.7%	-3.47%	35%	10%	0.901%	1%	47%	0%	28%	–
Cc1ccc(C(=O)Nc2ccc(CN3CCN(C)CC3)c(C(F)(F)F)c2)cc1C#Cc1cnc2cccnn12 [ponatinib]	-8%	–	6.48%	0.0638%	80%	–	–	–	–	–	–	–
CCN(CC)CCNC(=O)c1c(C)[nH]c(/C=C2\C(=O)Nc3ccc(F)cc32)c1C [sunitinib]	–	–	–	–	–	–	–	–	–	45%	–	–
COc1cc2c(Nc3ccc(Br)cc3F)ncnc2cc1OCC1CCN(C)CC1 [vandetanib]	-9%	–	46%	-0.702%	24%	5.36%	-0.384%	19%	16%	–	90%	%-inhibition of FES ([9]; kinase FES, compound at 1 μM): -3.7%
